Experimental data taken from patent US11655235B2, “Pyrrolidine and piperidine compounds” (YUHAN CORPORATION, priority 2019, dated 2023).
pIC50: −log10 of the molar value.

Key:
[1] = molecular target: T1, Recombinant human FAP (Homo sapiens, UniProt Q12884); test: FAP inhibition, fluorogenic substrate Z-Gly-Pro-AMC; type: biochemical; settings: for pIC50: 25° C., Z-Gly-Pro-AMC substrate; for inhibition at 1 µM: read-out: hFAP inhibition % at 1 μM
T1 construct: purchased R&D systems
T1 sequence (Q12884 1-760): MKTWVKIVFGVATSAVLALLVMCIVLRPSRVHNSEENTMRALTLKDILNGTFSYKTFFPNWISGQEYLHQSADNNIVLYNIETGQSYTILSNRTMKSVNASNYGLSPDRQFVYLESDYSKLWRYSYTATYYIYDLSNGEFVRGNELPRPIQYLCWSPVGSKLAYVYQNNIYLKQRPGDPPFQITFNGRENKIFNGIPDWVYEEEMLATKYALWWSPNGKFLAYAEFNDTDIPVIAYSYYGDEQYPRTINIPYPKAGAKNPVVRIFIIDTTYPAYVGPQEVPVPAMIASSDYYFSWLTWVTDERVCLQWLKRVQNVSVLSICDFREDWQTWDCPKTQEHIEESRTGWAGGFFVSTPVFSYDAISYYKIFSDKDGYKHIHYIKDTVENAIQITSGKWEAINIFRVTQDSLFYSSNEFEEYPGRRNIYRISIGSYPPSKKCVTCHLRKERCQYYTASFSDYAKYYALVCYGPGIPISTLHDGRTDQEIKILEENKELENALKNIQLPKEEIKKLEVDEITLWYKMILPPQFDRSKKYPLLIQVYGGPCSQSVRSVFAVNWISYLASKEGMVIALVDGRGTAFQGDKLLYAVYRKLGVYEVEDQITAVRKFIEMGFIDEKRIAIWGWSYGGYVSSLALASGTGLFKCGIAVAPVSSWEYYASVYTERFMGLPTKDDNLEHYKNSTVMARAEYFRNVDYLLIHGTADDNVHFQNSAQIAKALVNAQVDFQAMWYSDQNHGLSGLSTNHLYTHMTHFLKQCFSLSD
Protocol: The compounds according to the present technology were evaluated in terms of the inhibitory effect on the activity of dipeptidyl peptidases including FAP by using a substrate producing fluorescent substances upon enzymatic decomposition. The test was conducted at 25° C. to get a final reaction volume of 100 μL in a 96 black well plate. […] Briefly, the test compounds were dissolved in dimethyl sulfoxide (DMSO) at a concentration of 20 mM and then subjected to serial dilution, thereby creating an 8 point curve. As for the control group, a 6 point curve created by serial dilution of Talabostat in the same buffer solution was used. Fluorescence intensity was measured using a microplate reader (Flexstation3, Molecular Devices) under the wavelength condition exciting at 380 nm and reading the emission at 460 nm. The inhibitory effect of the test compounds was measured as a decrease (%) in the signal rate as compared to the control group without any inhibitor. Data was fixed to a logistic model with four variables and IC50 value was calculated using GraphPad Prism program. Recombinant human FAP (R&D systems) was diluted with 50 mM tris (pH 7.5) buffer comprising 1 M of sodium chloride and 1 mg/ml of bovine serum albumin (BSA) to be 10 ng per final reaction. The test compounds were subjected to serial dilution in a buffer under the condition containing up to 0.1% of DMSO. Z-Gly-Pro-AMC (Bachem) was used as a substrate. By dissolving in DMSO and then diluting in the same buffer, the substrate was added to be […] per final reaction.

[2] = molecular target: DPP4 (Homo sapiens, UniProt P27487); test: DPP4 inhibition, fluorogenic substrate H-Gly-Pro-AMC; type: biochemical; set-up: purchased R&D Systems; settings: for inhibition at 1 µM: read-out: hDPP4 inhibition % at 1 μM
Sequence of DPP4 (P27487 whole entry): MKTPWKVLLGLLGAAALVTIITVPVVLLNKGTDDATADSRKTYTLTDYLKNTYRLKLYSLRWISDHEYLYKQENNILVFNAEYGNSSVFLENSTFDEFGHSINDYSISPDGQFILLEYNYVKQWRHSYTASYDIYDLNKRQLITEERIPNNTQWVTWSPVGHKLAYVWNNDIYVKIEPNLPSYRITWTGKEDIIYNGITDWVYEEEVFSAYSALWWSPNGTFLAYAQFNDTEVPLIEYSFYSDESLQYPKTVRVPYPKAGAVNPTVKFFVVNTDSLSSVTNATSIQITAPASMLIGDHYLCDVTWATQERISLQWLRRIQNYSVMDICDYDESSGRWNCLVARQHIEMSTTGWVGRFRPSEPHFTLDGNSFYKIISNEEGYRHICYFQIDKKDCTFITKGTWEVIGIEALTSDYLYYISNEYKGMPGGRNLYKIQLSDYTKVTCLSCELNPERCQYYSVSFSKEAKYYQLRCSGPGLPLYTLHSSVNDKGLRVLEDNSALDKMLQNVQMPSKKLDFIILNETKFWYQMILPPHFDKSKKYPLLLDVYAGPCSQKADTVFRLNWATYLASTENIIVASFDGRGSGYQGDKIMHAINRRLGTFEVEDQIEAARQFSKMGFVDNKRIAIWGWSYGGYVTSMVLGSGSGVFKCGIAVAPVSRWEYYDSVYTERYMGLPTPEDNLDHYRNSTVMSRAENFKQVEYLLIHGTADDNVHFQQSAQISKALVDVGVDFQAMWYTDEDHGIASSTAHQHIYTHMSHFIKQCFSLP
Protocol: The compounds according to the present technology were evaluated in terms of the inhibitory effect on the activity of dipeptidyl peptidases including FAP by using a substrate producing fluorescent substances upon enzymatic decomposition. The test was conducted at 25° C. to get a final reaction volume of 100 μL in a 96 black well plate. […] Briefly, the test compounds were dissolved in dimethyl sulfoxide (DMSO) at a concentration of 20 mM and then subjected to serial dilution, thereby creating an 8 point curve. As for the control group, a 6 point curve created by serial dilution of Talabostat in the same buffer solution was used. Fluorescence intensity was measured using a microplate reader (Flexstation3, Molecular Devices) under the wavelength condition exciting at 380 nm and reading the emission at 460 nm. The inhibitory effect of the test compounds was measured as a decrease (%) in the signal rate as compared to the control group without any inhibitor. Data was fixed to a logistic model with four variables and IC50 value was calculated using GraphPad Prism program. As for recombinant human DPP4 (R&D Systems), 25 mM tris (pH 8.0) buffer as a buffer solution and H-Gly-Pro-AMC (Bachem) as a substrate were used. As for recombinant human DPP7 (R&D Systems), 25 mM MES (pH 6.0) buffer as a buffer solution and Lys-Pro-AMC (Bachem) as a substrate were used. As for recombinant human DPP8 (PBS Bioscience), as a buffer solution, a 10 mM tris (pH 7.4) buffer comprising 10 mM of magnesium chloride and 0.05% of Tween 20, and Z-Ala-Pro-AMC (BPS Bioscience) as a substrate were used. As for recombinant human DPP9 (R&D Systems), a 25 mM tris (pH 8.0) buffer as a buffer solution and H-Gly-Pro-AMC (Bachem) as a substrate were used. As for recombinant human PREP (R&D System), as a buffer solution, a 25 mM tris (pH 7.5) buffer comprising 250 mM sodium chloride and 2.5 mM DTT (Dithiolthreitol), and Z-Gly-Pro-AMC (Bachem) as a substrate were used. The evaluation was made by using 10 ng of DPP4, PDD7, and PREP, 20 ng of DPP8, and 50 ng of DPP9 based on the final reaction. In the evaluation of DPP4, the test compounds were subjected to serial dilution in a buffer under the condition containing up to 0.1% of DMSO. In the evaluation of DPP7, DPP8, DPP9, and PREP, the test compounds were subjected to serial dilution in each buffer under the condition containing up to 0.5% of DMSO.

SMILES | pIC50 [1] | hDPP4 inhibition % at 1 μM [2] | inhibition at 1 µM [1] [%] | inhibition at 1 µM [2] [%]
N#C[C@@H]1CCCN1C(=O)CN1CC[C@H](NC(=O)c2cccc3cccnc23)C1 [Example 34, N—((S)-1-(2-((S)-2-cyanopyrrolidin-1-yl)-2-oxoethyl)pyrrolidin-3-yl)quinoline-8-carboxamide] | 6.72 | No inhibition** |  | 
N#C[C@@H]1CCCN1C(=O)CN1CC[C@H](NC(=O)c2nccc3ccccc23)C1 [Example 35, N—((S)-1-(2-((S)-2-cyanopyrrolidin-1-yl)-2-oxoethyl)pyrrolidin-3-yl)isoquinoline-1-carboxamide] |  | No inhibition** | 76.1 | 
N#C[C@@H]1CCCN1C(=O)CN1CC[C@H](NC(=O)Cc2cccc3ccccc23)C1 [Example 38, N—((S)-1-(2-((S)-2-cyanopyrrolidin-1-yl)-2-oxoethyl)pyrrolidin-3-yl)-2-(naphthalen-1-yl)acetamide] | 6.77 | No inhibition** |  | 
N#C[C@@H]1CCCN1C(=O)CN1CC[C@H](NC(=O)c2ccccc2-c2ccccc2)C1 [Example 39, N—((S)-1-(2-((S)-2-cyanopyrrolidin-1-yl)-2-oxoethyl)pyrrolidin-3-yl)-[1,1′-biphenyl]-2-carboxamide] |  |  | 68.1 | 0.4
Cc1oc2ccccc2c1C(=O)N[C@H]1CCN(CC(=O)N2CCC[C@H]2C#N)C1 [Example 42, N—((S)-1-(2-((S)-2-cyanopyrrolidin-1-yl)-2-oxoethyl)pyrrolidin-3-yl)-2-methylbenzofuran-3-carboxamide] |  |  | 84.6 | 1.4
N#C[C@@H]1CCCN1C(=O)CN1CC[C@H](NC(=O)c2cccc3ccoc23)C1 [Example 58, N—((S)-1-(2-((S)-2-cyanopyrrolidin-1-yl)-2-oxoethyl)pyrrolidin-3-yl)benzofuran-7-carboxamide] | 7.20 | No inhibition** |  | 
N#C[C@@H]1CCCN1C(=O)CN1CC[C@H](NS(=O)(=O)c2cc3ccccc3o2)C1 [Example 59, N—((S)-1-(2-((S)-2-cyanopyrrolidin-1-yl)-2-oxoethyl)pyrrolidin-3-yl)benzofuran-2-sulfonamide] |  | No inhibition** | 33.4 | 
N#C[C@@H]1CCCN1C(=O)CN1CC[C@H](NS(=O)(=O)c2cc3ccccc3s2)C1 [Example 60, N—((S)-1-(2-((S)-2-cyanopyrrolidin-1-yl)-2-oxoethyl)pyrrolidin-3-yl)benzo[b]thiophene-2-sulfonamide] |  | No inhibition** | 44.2 | 
N#C[C@@H]1CCCN1C(=O)CN1CC[C@H](Oc2cccc3ccccc23)C1 [Example 62, (S)-1-(2-((S)-3-(naphthalen-1-yloxy)pyrrolidin-1-yl)acetyl)pyrrolidine-2-carbonitrile] | 7.12 | No inhibition** |  | 
N#C[C@@H]1CCCN1C(=O)CN1CC[C@H](Oc2ccc3ncccc3c2)C1 [Example 63, (S)-1-(2-((S)-3-(quinolin-6-yloxy)pyrrolidin-1-yl)acetyl)pyrrolidine-2-carbonitrile] | 6.89 | No inhibition** |  | 
N#C[C@@H]1CCCN1C(=O)CN1CC[C@H](Oc2ccc3c(c2)OCO3)C1 [Example 67, (S)-1-(2-((S)-3-(benzo[d][1,3]dioxol-5-yloxy)pyrrolidin-1-yl)acetyl)pyrrolidine-2-carbonitrile] |  | No inhibition** | 64 | 
N#C[C@@H]1CCCN1C(=O)CN1CC[C@H](Oc2cc3ccccc3cn2)C1 [Example 69, (S)-1-(2-((S)-3-(isoquinolin-3-yloxy)pyrrolidin-1-yl)acetyl)pyrrolidine-2-carbonitrile] | 7.19 |  |  | 8

The remaining compounds from weak to strong by pIC50 [1], led by results:

pIC50 [1] | hDPP4 inhibition % at 1 μM [2] | inhibition at 1 µM [1] [%] | inhibition at 1 µM [2] [%] | SMILES
7.34 |  |  | 2.4 | N#C[C@@H]1CCCN1C(=O)CN1CC[C@H](NC(=O)c2ccc3occc3c2)C1 [Example 56, N—((S)-1-(2-((S)-2-cyanopyrrolidin-1-yl)-2-oxoethyl)pyrrolidin-3-yl)benzofuran-5-carboxamide]
7.42 |  |  | 3.2 | N#C[C@@H]1CCCN1C(=O)CN1CC[C@H](NC(=O)c2cc3ccccc3o2)C1 [Example 40, N—((S)-1-(2-((S)-2-cyanopyrrolidin-1-yl)-2-oxoethyl)pyrrolidin-3-yl)benzofuran-2-carboxamide]
7.52 |  |  | 1.2 | Cc1cccc2c(C(=O)N[C@H]3CCN(CC(=O)N4CCC[C@H]4C#N)C3)coc12 [Example 45, N—((S)-1-(2-((S)-2-cyanopyrrolidin-1-yl)-2-oxoethyl)pyrrolidin-3-yl)-7-methylbenzofuran-3-carboxamide]
7.70 |  |  | 1.1 | N#C[C@@H]1CCCN1C(=O)CN1CC[C@H](NC(=O)c2cccc3occc23)C1 [Example 55, N—((S)-1-(2-((S)-2-cyanopyrrolidin-1-yl)-2-oxoethyl)pyrrolidin-3-yl)benzofuran-4-carboxamide]
7.73 |  |  | 3.7 | COc1cccc2c(C(=O)N[C@H]3CCN(CC(=O)N4CCC[C@H]4C#N)C3)coc12 [Example 47, N—((S)-1-(2-((S)-2-cyanopyrrolidin-1-yl)-2-oxoethyl)pyrrolidin-3-yl)-7-methoxybenzofuran-3-carboxamide]
7.75 |  |  | 1.3 | Cc1ccc2c(C(=O)N[C@H]3CCN(CC(=O)N4CCC[C@H]4C#N)C3)coc2c1 [Example 53, N—((S)-1-(2-((S)-2-cyanopyrrolidin-1-yl)-2-oxoethyl)pyrrolidin-3-yl)-6-methylbenzofuran-3-carboxamide]
7.78 | No inhibition** |  |  | N#C[C@@H]1CCCN1C(=O)CN1CC[C@H](NC(=O)c2coc3c(F)cccc23)C1 [Example 50, N—((S)-1-(2-((S)-2-cyanopyrrolidin-1-yl)-2-oxoethyl)pyrrolidin-3-yl)-7-fluorobenzofuran-3-carboxamide]
7.86 |  |  | 0.5 | Cc1ccc2occ(C(=O)N[C@H]3CCN(CC(=O)N4CCC[C@H]4C#N)C3)c2c1 [Example 52, N—((S)-1-(2-((S)-2-cyanopyrrolidin-1-yl)-2-oxoethyl)pyrrolidin-3-yl)-5-methylbenzofuran-3-carboxamide]
